Measurements reported in PMC3665789 (PLoS ONE, 2013).
Read-outs that look alike come from different tables or passages of the source.

How the values were obtained:
[1] = tested on: HIV-1 NL4.3 binding to CD4+ SupT1 cells; assay type: cell-based; settings: LabyA1 9.6 µM, sCD4 10 µg/ml, AMD3100 12 µM; no compound MFI 9.8, background 3.9
PBMCs = assay: Activation markers CD25 and CD69 on PBMCs (flow cytometry); assay type: cell-based; settings: 3 days, LabyA1 9.6 µM, PHA 0.016 µM
Experimental: The effects of 9.6 µM LabyA1 and 0.016 µM PHA on the expression levels of the cellular activation markers CD25 and CD69 on PBMCs was measured after 3 days of incubation at 37°C. After washing with PBS/FCS2%, cells were incubated with anti-CD4 conjugated with PerCP (BD Biosciences) and co-stained with the PE-conjugated mAbs anti-CD25 or anti-CD69 (both BD Biosciences) for 30 min at 4°C. For aspecific background staining, cells were incubated with SimulTest™ Control (IgGγ1-FITC/IgGγ2a-PE). After washing, and fixation with 1% formaldehyde solution, samples were analyzed using the FACSCalibur and CellQuest software (BD Biosciences).

[2] = tested on: HIV-1 UG270 (clinical isolate; X4); settings: PBMCs; UG270, group M subtype D; p24 Ag ELISA
[3] = tested on: HSV-2 wild-type G (reference strain); settings: HEL cells; HSV-2 G; CPE
HIV-1 R5 BaL in PBMCs = assay: Susceptibility of pre-treated PBMCs for HIV-1 infection; settings: washed, HIV-1 BaL, day 7
Experimental: The next day, cells were collected, extensively washed in culture medium, resuspended (5×10^5 cells/450 µl) and seeded in a 48-well plate. Immediately afterwards, 50 µl of HIV-1 R5 strain BaL (500 pg/well) was added and cells were cultures for 7 days. Supernatant was collected 7 days post virus infection and viral replication was determined by p24 HIV-1 Ag ELISA.

HIV = settings: read-out: anti-HIV activity EC50 range; range over all HIV strains in cell cultures
HIV-1 HE (R5/X4) = settings: read-out: EC50 (µM ± SEM), PBMCs, p24 Ag ELISA
HIV-1 NL4.3 (X4) [4] = settings: read-out: EC50 (µM ± SEM), PBMCs, p24 Ag ELISA
[5] = tested on: HSV-1 wild-type C559142 (clinical isolate); settings: HEL cells; HSV-1 C559142; CPE
CD4 = molecular target: T1, CD4 (Homo sapiens, UniProt P01730); assay: Anti-CD4 mAb binding on SupT1 cells (flow cytometry); settings: SupT1 T cells; 9.6 µM or 1.9 µM
T1 construct: endogenous in cells; host or cells: SupT1 T cells (ATCC)
Experimental: To determine the interaction of LabyA1 with CD4, SupT1 cells (100 µl; 3×10^6 cells/ml) were incubated for 20 min at 4°C with 9.6 µM, 1.9 µM or 0 µM LabyA1. After extensive washing with PBS/FCS2% (PBS supplemented with 2% FCS), anti-CD4-PE conjugated mAbs RPA-T4 (eBioscience, Vienna, Austria), MT441 (Ancell, Enzo Life sciences) and OKT-4 (eBioscience) were added for 30 min at 4°C. For aspecific background staining, cells were incubated with SimulTest™ Control (IgGγ1-FITC/IgGγ2a-PE) (BD Biosciences). After washing, and fixation with 1% formaldehyde solution, samples were analyzed using the FACSCalibur and CellQuest software (BD Biosciences). The same protocol was applied for anti-CXCR4 evaluation using the fluorochrome conjugated mAbs 12G5-PE and 2B11-FITC (both BD Biosciences).

X4 HIV-1 gp120 IIIB = molecular target: T2, X4 HIV-1 gp120 IIIB (Human immunodeficiency virus type 1 group M subtype B, UniProt P04578); assay: Surface plasmon resonance; assay type: binding
T2 construct: Recombinant gp120 proteins from X4 HIV-1 IIIB strain; purchased ImmunoDiagnostics Inc., Woburn, MA
Experimental: (§1) Recombinant gp120 proteins from X4 HIV-1 IIIB strain (ImmunoDiagnostics Inc., Woburn, MA) and from R5 HIV-1 strains ADA and YU2 (ImmunoDiagnostics Inc.) were covalently immobilized on a CM5 sensor chip in 10 mM sodium acetate, pH 4.0, using standard amine coupling chemistry. […] A reference flow cell was used as a control for non-specific binding and refractive index changes. […] Samples (in duplicate) were injected for 2 minutes at a flow rate of 45 µl/min and the dissociation was followed for 4 minutes. Several buffer blanks were used for double referencing. The CM5 sensor chip surface was regenerated with a single injection of 50 mM NaOH. A DMSO concentration series was included to eliminate the contribution of DMSO to the measured response. […] The experimental data were fit using the 1∶1 binding model Biacore T200 Evaluation software 1.0 to determine the binding kinetics.

R5 HIV-1 gp120 YU2 = molecular target: T3, R5 HIV-1 gp120 YU2 (Human immunodeficiency virus type 1 group M subtype B, UniProt P35961); assay: Surface plasmon resonance; assay type: binding
T3 construct: Recombinant gp120 proteins from X4 HIV-1 IIIB strain (ImmunoDiagnostics Inc., Woburn, MA) and from R5 HIV-1 strains ADA and YU2; purchased ImmunoDiagnostics Inc
Experimental: as §1

[6] = tested on: laboratory-adapted HIV strains
[7] = tested on: HSV-1 TK^- RV-117 (clinical isolate); settings: HEL cells, CPE
HIV-1 NL4.3 (X4) [8] = settings: read-out: EC50 (µM ± SEM), MT-4 cells, MTS/PES method
[9] = tested on: HIV-1 DJ259 (clinical isolate; R5); settings: PBMCs; DJ259, group M subtype C; p24 Ag ELISA
[10] = tested on: HIV-1 ID12 (clinical isolate; R5); settings: PBMCs; ID12, group M subtype A/E; p24 Ag ELISA

SMILES: C/C=C1\NC(=O)[C@H](Cc2ccccc2)NC(=O)[C@@H]2CCCN2C(=O)[C@H](C(C)C)NC(=O)[C@H](Cc2c[nH]c3ccccc23)NC(=O)[C@]23CSC[C@H](NC1=O)C(=O)N[C@H](C(=O)O)CSSC[C@H](NC(=O)[C@@H]1CSC[C@]4(C[C@H](N)C(=O)N[C@@H](CC(N)=O)C(=O)N[C@@H](C)C(=O)N4)C(=O)N[C@@H](C(C)C)C(=O)N[C@@H](Cc4c[nH]c5ccccc45)C(=O)N[C@@H](CCC(=O)O)C(=O)N1)C(=O)N[C@@H](C2)C(=O)N[C@@H]([C@@H](C)O)C(=O)NCC(=O)N3 [LabyA1, labyrinthopeptin A1]
- virus binding, mean fluorescence intensity (MFI) of anti-gp120 (9205) mAb [1]: 9.2
- percentage of CD4+CD69+ cells (PBMCs; untreated 1.4±0.8%): no significant effects
- percentage of CD4+CD25+ cells (PBMCs; untreated 10.7±3.2%): no significant effects
- EC50 [2]: 1500 ± 100 nM
- EC50 [3]: 320 ± 50 nM
- p24 HIV-1 Ag production after pre-treatment (HIV-1 R5 BaL in PBMCs; PBMCs pre-treated 24 h with 1.9 µM): 12.26 ± 4.61 ng/mL
- p24 HIV-1 Ag production after pre-treatment (HIV-1 R5 BaL in PBMCs; PBMCs pre-treated 24 h with 9.6 µM, no compound 12.69±4.83): 15.37 ± 3.75 ng/mL
- EC50 (HIV): 700 to 3300 nM
- EC50 (HIV-1 HE (R5/X4)): 1.8 ± 0.3 µM
- EC50 (HIV-1 NL4.3 (X4) [4]): 0.79 ± 0.09 µM
- EC50 [5]: 450 ± 20 nM
- effect on binding of anti-CD4 mAbs RPA-T4, MT441 and OKT4 (CD4): no effect
- Kd (X4 HIV-1 gp120 IIIB): 7.8 ± 2.1 µM
- Kd (R5 HIV-1 gp120 YU2): 9.8 ± 1.6 µM
- EC50 ([6]; read-out: EC50 range, range over cell-line adapted HIV strains (Table 1)): 790 to 3300 nM
- EC50 ([6]; read-out: Median EC50, median over laboratory-adapted HIV strains in MT-4, PBMCs, MDM): 1900 nM
- EC50 [7]: 1900 ± 600 nM
- EC50 (HIV-1 NL4.3 (X4) [8]): 1.7 ± 0.4 µM
- EC50 [9]: 940 ± 430 nM
- EC50 [10]: 1200 ± 800 nM
